For 16 compounds, EC50 results are on record in patent US8796466B2, “Hepatitis C virus inhibitors” (Bristol-Myers Squibb Company, priority 2009, dated 2014).

Read-outs that look alike come from different tables or passages of the source.

The subject of this assay is HCV 1b genotype. Put plainly: HCV Replicon assay (HCV 1b genotype). The class given is cell-based, Hepatitis C virus. The note with it: HCV 1b genotype replicon. The protocol:
An HCV Replicon assay was utilized in the present disclosure, and was prepared, conducted and validated as described in commonly owned PCT/US2006/022197 and in O'Boyle et. al. Antimicrob Agents Chemother. 2005 April; 49(4):1346-53. Assay methods incorporating luciferase reporters have also been used as described (Apath.com).
HCV-neo replicon cells and replicon cells containing mutations in the NS5A region were used to test the currently described family of compounds. The compounds were determined to have more than 10-fold less inhibitory activity on cells containing mutations than wild-type cells. Thus, the compounds of the present disclosure can be effective in inhibiting the function of the HCV NS5A protein and are understood to be as effective in combinations as previously described in application PCT/US2006/022197 and commonly owned WO/04014852. Further, the compounds of the present disclosure can be effective against the HCV 1b genotype. It should also be understood that the compounds of the present disclosure can inhibit multiple genotypes of HCV. […] In one embodiment, compounds of the present disclosure are inhibitory versus 1a, 1b, 2a, 2b, 3a, 4a, and 5a genotypes.

Setting [1] is: Hepatitis C virus, class symbol, read-out: Range (EC50 values against HCV 1b).
Where [2] appears, read: Hepatitis C virus, Effective 50% inhibitory concentration, read-out: 1b EC50.

In general, EC50 refers to the concentration at which the effect is half-maximal. Take `O=C(NC1CCCC1)N[C@@H](C(=O)N1CCC[C@H]1c1nc(-c2ccc(COCc3cccc(-c4c[nH]c([C@@H]5CCCN5C(=O)[C@H](NC(=O)NC5CCCC5)c5ccccc5)n4)c3)cc2)c[nH]1)c1ccccc1` [OL-25, 1-cyclopentyl-3-((1R)-2-((2S)-2-(4-(3-(((4-(2-((2S)-1-((2R)-2-((cyclopentylcarbamoyl)amino)-2-phenylacetyl)-2-pyrrolidinyl)-1H-imidazol-4-yl)benzyl)oxy)methyl)phenyl)-1H-imidazol-2-yl)-1-pyrrolidinyl)-2-oxo-1-phenylethyl)urea]: under setting [1], the EC50 lay in the range of 0.002 to 0.099 nM. Take `O=C([C@H](O)c1ccccc1)N1CCC[C@H]1c1nc(-c2ccc(Oc3ccc(-c4cnc([C@@H]5CCCN5C(=O)[C@H](O)c5ccccc5)[nH]4)cc3)cc2)c[nH]1` [OL-2, (1R)-2-((2S)-2-(4-(4-(4-(2-((2S)-1-((2R)-2-hydroxy-2-phenylacetyl)-2-pyrrolidinyl)-1H-imidazol-5-yl)phenoxy)phenyl)-1H-imidazol-2-yl)-1-pyrrolidinyl)-2-oxo-1-phenylethanol]: the EC50 under setting [2] came to 9.1 nM and the EC50 under setting [1] was in the range of 1 to 9.9 nM. On to `O=C(NC1CCCC1)N[C@@H](C(=O)N1CCC[C@H]1c1nc(-c2ccc(COCc3ccc(-c4cnc([C@@H]5CCCN5C(=O)[C@H](NC(=O)NC5CCCC5)c5ccccc5)[nH]4)cc3)cc2)c[nH]1)c1ccccc1` [OL-19, 1-cyclopentyl-3-((1R)-2-((2S)-2-(4-(4-(((4-(2-((2S)-1-((2R)-2-((cyclopentylcarbamoyl)amino)-2-phenylacetyl)-2-pyrrolidinyl)-1H-imidazol-5-yl)benzyl)oxy)methyl)phenyl)-1H-imidazol-2-yl)-1-pyrrolidinyl)-2-oxo-1-phenylethyl)urea], for which the EC50 under setting [1] fell in the range of 1 to 9.9 nM. `COC(=O)N[C@@H](C(=O)N1CCC[C@H]1c1nc(-c2ccc(Oc3cccc(-c4c[nH]c([C@@H]5CCCN5C(=O)[C@H](NC(=O)OC)c5ccccc5)n4)c3)cc2)c[nH]1)c1ccccc1` [OL-6, methyl ((1R)-2-((2S)-2-(4-(3-(4-(2-((2S)-1-((2R)-2-((methoxycarbonyl)amino)-2-phenylacetyl)-2-pyrrolidinyl)-1H-imidazol-4-yl)phenoxy)phenyl)-1H-imidazol-2-yl)-1-pyrrolidinyl)-2-oxo-1-phenylethyl)carbamate]: the EC50 under setting [1] lay in the range of 0.002 to 0.099 nM. Still for that read-out and setting: with `COC(=O)N[C@H](C(=O)N1CC(F)(F)C[C@H]1c1nc(-c2ccc(C#Cc3ccc(-c4c[nH]c([C@@H]5CC(F)(F)CN5C(=O)[C@@H](NC(=O)OC)C(C)C)n4)cc3)cc2)c[nH]1)C(C)C` [Example N1, methyl ((1S)-1-(((2S)-2-(4-(4-((4-(2-((2S)-4,4-difluoro-1-((2S)-2-((methoxycarbonyl)amino)-3-methylbutanoyl)-2-pyrrolidinyl)-1H-imidazol-4-yl)phenyl)ethynyl)phenyl)-1H-imidazol-2-yl)-4,4-difluoro-1-pyrrolidinyl)carbonyl)-2-methylpropyl)carbamate] the figure was 0.002 to 0.099 nM; with `CCNC(=O)N[C@@H](C(=O)N1CCC[C@H]1c1nc(-c2ccc(COCc3cccc(-c4c[nH]c([C@@H]5CCCN5C(=O)[C@H](NC(=O)NCC)c5ccccc5)n4)c3)cc2)c[nH]1)c1ccccc1` [OL-24, 1-ethyl-3-((1R)-2-((2S)-2-(4-(3-(((4-(2-((2S)-1-((2R)-2-((ethylcarbamoyl)amino)-2-phenylacetyl)-2-pyrrolidinyl)-1H-imidazol-4-yl)benzyl)oxy)methyl)phenyl)-1H-imidazol-2-yl)-1-pyrrolidinyl)-2-oxo-1-phenylethyl)urea], 0.002 to 0.099 nM. `COC(=O)N[C@H](C(=O)N1[C@@H]2C[C@@H]2C[C@H]1c1nc(-c2ccc(/C=C/c3ccc(-c4c[nH]c([C@@H]5C[C@H]6C[C@H]6N5C(=O)[C@@H](NC(=O)OC)C5CCOCC5)n4)cc3)cc2)c[nH]1)C1CCOCC1` [Example M14, dimethyl ((E)-1,2-ethenediylbis(4,1-phenylene-1H-imidazole-4,2-diyl(1R,3S,5R)-2-azabicyclo[3.1.0]hexane-3,2-diyl((1S)-2-oxo-1-(tetrahydro-2H-pyran-4-yl)-2,1-ethanediyl)))biscarbamate]: the concentration giving a half-maximal response (EC50) reads like this: under setting [2], 0.017 nM; under setting [1], 0.002 to 0.099 nM.

On to `COC(=O)N[C@H](C(=O)N1C[C@@H](C)C[C@H]1c1nc(Cl)c(-c2ccc(C#Cc3ccc(-c4[nH]c([C@@H]5C[C@H](C)CN5C(=O)[C@@H](NC(=O)OC)C(C)C)nc4Cl)cc3)cc2)[nH]1)C(C)C` [Example M12.5], for which the EC50 (class symbol, read-out: Range (EC50 values against HCV 1b)) was in the range of 0.002 to 0.099 nM. Turning to `COC(=O)N[C@H](C(=O)N1C[C@@H](C)C[C@H]1c1nc(-c2ccc(C#Cc3ccc(-c4[nH]c([C@@H]5C[C@H](C)CN5C(=O)[C@@H](NC(=O)OC)C5CCOCC5)nc4Cl)cc3)cc2)c[nH]1)C1CCOCC1` [Example M12.6, methyl ((1S)-2-((2S,4S)-2-(4-(4-((4-(4-chloro-2-((2S,4S)-1-((2S)-2-((methoxycarbonyl)amino)-2-(tetrahydro-2H-pyran-4-yl)acetyl)-4-methyl-2-pyrrolidinyl)-1H-imidazol-5-yl)phenyl)ethynyl)phenyl)-1H-imidazol-2-yl)-4-methyl-1-pyrrolidinyl)-2-oxo-1-(tetrahydro-2H-pyran-4-yl)ethyl)carbamate], the EC50 under setting [1] was in the range of 0.002 to 0.099 nM. Consider `O=C([C@H](O)c1ccccc1)N1CCC[C@H]1c1nc(-c2ccc(Oc3cccc(-c4c[nH]c([C@@H]5CCCN5C(=O)[C@H](O)c5ccccc5)n4)c3)cc2)c[nH]1` [OL-5, (1R)-2-((2S)-2-(4-(3-(4-(2-((2S)-1-((2R)-2-hydroxy-2-phenylacetyl)-2-pyrrolidinyl)-1H-imidazol-4-yl)phenoxy)phenyl)-1H-imidazol-2-yl)-1-pyrrolidinyl)-2-oxo-1-phenylethanol], for which the half-maximal effective concentration (EC50) reads like this: under setting [2], 80 nM; under setting [1], 10 to 350 nM. `COC(=O)N[C@@H](C(=O)N1CCC[C@H]1c1nc(-c2ccc(CCc3ccc(-c4c[nH]c([C@@H]5CCCN5C(=O)[C@H](NC(=O)OC)c5ccccc5)n4)cc3)cc2)c[nH]1)c1ccccc1` [OL-11, dimethyl (1,2-ethanediylbis(4,1-phenylene-1H-imidazole-4,2-diyl(2S)-2,1-pyrrolidinediyl((1R)-2-oxo-1-phenyl-2,1-ethanediyl)))biscarbamate]: the half-maximal effective concentration (EC50) under setting [1] lay within 0.002 to 0.099 nM.

With `COC(=O)N[C@@H](C(=O)N1CCC[C@H]1c1nc(-c2ccc(Oc3ccc(-c4c[nH]c([C@@H]5CCCN5C(=O)[C@H](NC(=O)OC)c5ccccc5)n4)cc3)cc2)c[nH]1)c1ccccc1` [OL-3, dimethyl (oxybis(4,1-phenylene-1H-imidazole-4,2-diyl(2S)-2,1-pyrrolidinediyl((1R)-2-oxo-1-phenyl-2,1-ethanediyl)))biscarbamate], the 50% effective concentration (EC50) under setting [1] lay within 1 to 9.9 nM. As to `COC(=O)N[C@@H](C(=O)N1CCC[C@H]1c1ncc(-c2ccc(C#Cc3ccc4c(c3)CCc3nc([C@@H]5CCCN5C(=O)[C@H](NC(=O)OC)c5ccccc5)[nH]c3-4)cc2)[nH]1)c1ccccc1` [Example D-4, methyl ((1R)-2-((2S)-2-(4-(4-((2-((2S)-1-((2R)-2-((methoxycarbonyl)amino)-2-phenylacetyl)-2-pyrrolidinyl)-4,5-dihydro-1H-naphtho[1,2-d]imidazol-7-yl)ethynyl)phenyl)-1H-imidazol-2-yl)-1-pyrrolidinyl)-2-oxo-1-phenylethyl)carbamate], under setting [1], the concentration for a half-maximal effect (EC50) is 0.002 to 0.099 nM.

Regarding `COC(=O)N[C@H](C(=O)N1C[C@@H](C)C[C@H]1c1ncc(-c2ccc(C#Cc3ccc(-c4cnc([C@@H]5C[C@H](C)CN5C(=O)[C@@H](NC(=O)OC)C5CCOCC5)[nH]4)cc3)cc2)[nH]1)C(C)C` [Example M12.8, methyl ((1S)-2-((2S,4S)-2-(4-(4-((4-(2-((2S,4S)-1-((2S)-2-((methoxycarbonyl)amino)-3-methylbutanoyl)-4-methyl-2-pyrrolidinyl)-1H-imidazol-4-yl)phenyl)ethynyl)phenyl)-1H-imidazol-2-yl)-4-methyl-1-pyrrolidinyl)-2-oxo-1-(tetrahydro-2H-pyran-4-yl)ethyl)carbamate], the EC50 under setting [1] was in the range of 0.002 to 0.099 nM. As for `COC(=O)N[C@H](C(=O)N1[C@@H]2C[C@@H]2C[C@H]1c1ncc(-c2cccc(C#Cc3cccc(-c4cnc([C@@H]5C[C@H]6C[C@H]6N5C(=O)[C@@H](NC(=O)OC)C5CCOCC5)[nH]4)c3)c2)[nH]1)C1CCOCC1` [Example J4, dimethyl (1,2-ethynediylbis(3,1-phenylene-1H-imidazole-4,2-diyl(1R,3S,5R)-2-azabicyclo[3.1.0]hexane-3,2-diyl((1S)-2-oxo-1-(tetrahydro-2H-pyran-4-yl)-2,1-ethanediyl)))biscarbamate], the EC50 under setting [1] lay in the range of 0.002 to 0.099 nM.

As for `COC(=O)N[C@@H](C(=O)N1[C@@H]2C[C@@H]2C[C@H]1c1ncc(-c2ccc(C#Cc3ccc4c(ccc5nc([C@@H]6C[C@H]7C[C@H]7N6C(=O)[C@H](NC(=O)OC)c6ccccc6)[nH]c54)c3)cc2)[nH]1)c1ccccc1` [Example D-8, methyl ((1R)-2-((1R,3S,5R)-3-(7-((4-(2-((1R,3S,5R)-2-((2R)-2-((methoxycarbonyl)amino)-2-phenylacetyl)-2-azabicyclo[3.1.0]hex-3-yl)-1H-imidazol-4-yl)phenyl)ethynyl)-1H-naphtho[1,2-d]imidazol-2-yl)-2-azabicyclo[3.1.0]hex-2-yl)-2-oxo-1-phenylethyl)carbamate], the EC50 is 0.005 nM under setting [2] and 0.002 to 0.099 nM under setting [1].
